The target of one data set is T1, Human CCR3 (Homo sapiens, UniProt P51677).
T1 construct: The cloned CCR3 cDNA was constructed with pcDNA3 vector and transfected into a IC562 cell line; expressed in transfected cells
T1 sequence (P51677 1-355): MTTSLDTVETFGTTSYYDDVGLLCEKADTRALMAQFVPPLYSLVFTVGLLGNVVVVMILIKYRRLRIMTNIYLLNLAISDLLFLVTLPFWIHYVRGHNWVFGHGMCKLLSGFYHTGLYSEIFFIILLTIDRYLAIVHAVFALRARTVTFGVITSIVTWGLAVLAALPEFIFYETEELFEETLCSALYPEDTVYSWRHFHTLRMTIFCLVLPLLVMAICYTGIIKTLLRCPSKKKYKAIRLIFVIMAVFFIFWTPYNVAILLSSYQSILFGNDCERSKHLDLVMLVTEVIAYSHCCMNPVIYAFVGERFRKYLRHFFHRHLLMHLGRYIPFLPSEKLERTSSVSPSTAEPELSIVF
Kind of data set: Receptor binding assay (RBA), [125I]-eotaxin. The following applies: human CCR3-transformed K562 cells, 0.1 nM [125I]-eotaxin; compounds of about 40 to 90% purity; read-out: Activity grade RBA (IC50 class). On the procedure:
[Determination of IC50 Values of Compounds in Receptor Binding Assay]
• Human CCR3-transformed K562 cells were used. The cloned CCR3 cDNA was constructed with pcDNA3 vector and transfected into a IC562 cell line. The human CCR3-transformed K562 cells were maintained in RPMI-1640 (Cat.#22400-089, Life Technologies) supplemented with 10% FCS (Cat.#A-1115-L, Hyclone), 55 μM 2-mercaptoethanol (Cat.#21985-023, Life Technologies), 1 mM sodium pyruvate (Cat.#11360-070, Life Technologies), 100 units/ml of penicillin G and 100 μg/ml of streptomycin (Cat.#15140-122, Life Technologies), and 0.4 mg/ml of Geneticin (Cat.#10131-035, Life Technologies)(hereinafter called “culture medium”). Before the receptor binding assay, cells were pretreated with 5 mM sodium butyrate (Cat.#193-01522, Wako)-containing the culture medium (2×10^5 cells/ml) for 20-24 hours to increase the expression of CCR3. (2) Receptor Binding Assay (RBA) • Butyrate-pretreated cells, suspended in binding buffer (25 mM HEPES pH 7.6, 1 mM CaCl2, 5 mM MgCl2, 0.5% BSA, 0.1% NaN3) at a cell density of 2×10^6 cells/ml, were added into 60 μl/well in the 96-well round bottom polypropylene plate (Cat.#3365, Costar). Compounds, diluted with the binding buffer (4-times higher concentration of the final concentration), were added into 30 μl/well in the polypropylene plate. [^125I]-labeled human eotaxin (Cat.#IM290, Amersham Pharmacia Biotech), diluted with the binding buffer at the concentration of 0.4 nM (final concentration; 0.1 nM), was added into 30 μl/well in the polypropylene plate. Total 120 μl/well of binding reaction mixture (60 μl/well of cell suspension, 30 μl/well of compound solution, and 30 μl/well of [^125I]-labeled eotaxin) were incubated in the polypropylene plate for 1 hour at room temperature after the incubation, 100 μl/well of the reaction mixture was transferred to a filtration plate (Cat.#MAFB-N0B, Millipore), and washed with the washing buffer (25 mM HEPES pH 7.6, 1 mM CaCl2, 5 mM MgCl2, 0.5% BSA, 0.1% NaN3, 0.5 M NaCl) twice. The 96-well filtration plate was pretreated with 100 μl/well of 0.5% polyethylenimine (Cat.#P-3143, Sigma) for 2-4 hours at room temperature and washed with the washing buffer twice before use. The non-specific binding was determined by parallel incubation in the presence of 500 nM of non-labeled eotaxin (Cat.#23209, Genzyme Techne). The radioactivities remained on the filter were measured by liquid scintillation counter (TopCount™, Packard) after an addition of 45 μl/well of scintillant (Microscint20, Cat.#6013621, Packard). The inhibition percent at each concentration of compound was calculated, and IC50 values were determined from the inhibition curve. [Determination of IC50 Values of Compounds in Calcium Mobilization Assay] (IC50 Ca2+) (1) Cell • Human CCR3-transformed K562 cells were used. The human CCR3-transformed K562 cells were maintained in RPMI-1640 supplemented with 10% FCS, 55 μM 2-mercaptoethanol (Cat.#21985-023, Life Technologies), 1 mM sodium pyruvate, 100 units/ml of penicillin G and 100 μg/ml of streptomycin and 0.4 mg/ml of Geneticin. Before the calcium mobilization assay, cells were pretreated with 5 mM sodium butyrate-containing the culture medium (2×10^5 cells/ml) for 20-24 hours to increase the expression of CCR3. (2) Calcium Mobilization Assay • Butyrate-pretreated cells were loaded with Fluo-3AM (Cat.#F-1242, Molecular Probes) in loading buffer (Hanks' solution Cat.#05906 Nissui, 20 mM HEPES pH 7.6, 0.1% BSA, 1 mM probenecid Cat.#P-8761 Sigma, 1 μM Fluo-3AM, 0.01% pluronic F-127 Cat.#P-6866 Molecular Probes) at a cell density of 1×10^7 cells/ml. Then, cells were washed with calcium assay buffer (Hanks' solution Cat.#05906 Nissui, 20 mM HEPES pH 7.6, 0.1% BSA, 1 mM Probenecid Cat.#P-8761 Sigma). The cell suspension (3.3×10^6 cells/ml) was added into 60 μl/well in the 96-well clear bottom black plate (Cat.#3904, Costar). […]

Where a name gives a salt, the structure may show the parent alone.

In general, melting point refers to the temperature of the solid-liquid transition. In general, IC50 refers to the concentration needed to halve the response being measured. Turning to `O=[N+]([O-])c1ccc(Oc2ccccc2F)c(S(=O)(=O)N2CCNCC2)c1` [Example 1-14], the melting point was 118 to 120 °C. Besides, at Human CCR3, the half-inhibitory concentration (IC50) was 1 to 10 µM. For `Cl.O=[N+]([O-])c1ccc(Oc2cccc(F)c2)c(S(=O)(=O)N2CCNCC2)c1` [Example 1-15] the same measures were 227 to 229 °C and 1 to 10 µM. The matching figures for `Cc1ccc(Oc2ccc([N+](=O)[O-])cc2S(=O)(=O)N2CCNCC2)cc1.Cl` [Example 1-16]: 188 to 192 °C and greater than 10 µM.

In turn, `Cc1cccc(Oc2ccc([N+](=O)[O-])cc2S(=O)(=O)N2CCNCC2)c1.Cl` [Example 1-17] came in with a melting point of 242 to 244 °C. In addition, the half-maximal inhibitory concentration (IC50) at Human CCR3 is less than 1 µM.

As for `O=[N+]([O-])c1ccc(Oc2cccc(Cl)c2Cl)c(S(=O)(=O)N2CCNCC2)c1` [Example 1-82], the melting point is 173 to 174 °C. The IC50 at Human CCR3 fell in the range of 1 to 10 µM.

On to `O=[N+]([O-])c1ccc(Oc2ccc(Cl)c(Cl)c2)c(S(=O)(=O)N2CCNCC2)c1` [Example 1-83], for which the melting point fell in the range of 167 to 168 °C. Moreover, the IC50 on Human CCR3 was greater than 10 µM. Turning to `Cc1cc(C)cc(Nc2ccc([N+](=O)[O-])cc2S(=O)(=O)N2CCNCC2)c1` [Example 3-1, N-(3,5-dimethyl-phenyl)-4-nitro-2-(1-piperazinylsulfonyl)aniline dihydrochloride], the IC50 on Human CCR3 was less than 1 µM.

Turning to `Cc1cc(C)cc(Oc2ccc([N+](=O)[O-])cc2S(=O)(=O)N2CCN(Cc3ccccc3)CC2)c1` [Example 4-9], the melting point is 123 to 124 °C. In addition, the IC50 on Human CCR3 was greater than 10 µM. For `Cc1cc(C)cc(Oc2ccc([N+](=O)[O-])cc2S(=O)(=O)N2CCN(C=O)CC2)c1` [Example 4-10] the same measures were 210 to 212 °C and greater than 10 µM. The compound `Cc1cc(C)cc(Oc2ccc([N+](=O)[O-])cc2S(=O)(=O)N2CCC(N3CCCC3)CC2)c1` [Example 4-11] came in with a melting point of 156 to 158 °C. For the same compound, the 50% inhibitory concentration (IC50) on Human CCR3 was less than 1 µM.

Take `CN(C)c1ccc(NS(=O)(=O)c2cc([N+](=O)[O-])ccc2Oc2cc(Cl)cc(Cl)c2)cc1` [Example 4-25]: the melting point is 226 °C. Moreover, the IC50 on Human CCR3 lay in the range of 1 to 10 µM. The matching figures for `N#Cc1ccc(Oc2cc(Cl)cc(Cl)c2)c(S(=O)(=O)N2CCN3CCCC3C2)c1` (centres unmarked) [Example 13-12]: 161 °C and less than 1 µM.

The values are drawn from patent US8242118B2, “Arylsulfonamide derivatives for use as CCR3 antagonists in the treatment of inflammatory and immunological disorders” (Axikin Pharmaceuticals Inc., priority 2001, dated 2012).
